Holding throughout (type): cell-based
For assay [1], the system named is p-p70 S6 Kinase (Thr389) in MCF-7 cells. The assay is described as follows: AlphaLISA Ultra pS6K1 assay. To be noted: Homo sapiens, 1.5 h; MCF7 cells, 90 min. The method, then: Example 55: AlphaLISA Ultra pS6K1 Assay
(§1) Assay Protocol: • 1. Seed MCF-7 cells in Corning 3701 plate and incubate for 20˜24 hour. 12,000˜16,000 cells will be seeded in 36 μL medium per well. • 2. Change the culture medium with fresh medium and incubate for another 2 hours. • 3. Add 12 μL (4×) compounds into the cell plate by HAMILTON. Final DMSO concentration is 0.5%. Incubate for 90 minutes. • 4. Aspirate 38 μL by HAMILTON, 10 μL rest per well. • 5. Add 10 μL 2× lysis buffer using HAMILTON; total volume in wells is 20 μL. Allow cells to shake for 30 min. Cover plate by plastic foil and store plate at −80° C. up to analysis. • 6. Thaw cell lysate at RT and transfer 10 μL lysate to assay plate (Optiplate-384). • 7. Add 5 μL acceptor beads into assay plate and incubation for 2 hours • 8. Add 5 μL donor beads and incubation for 2 hours • 9. Count the plate by EnSpire Multimode Plate Reader
On the technique in general: In Alpha technology, singlet oxygen from a donor bead excites a nearby acceptor bead.

The subject of assay [2] is p-Akt 1/2/3 (Ser473) in MCF-7 cells. The assay is described as follows: AlphaLISA Ultra pAKT assay. The conditions noted are these: Homo sapiens, 1.5 h; MCF7 cells, 90 min. The method, then: Example 56: AlphaLISA Ultra pAKT Assay
as §1, with “1.” for “1. Seed”, “16,000˜20,000” for “12,000˜16,000”, “90 minutes.” for “2 hours.”, “Incubate for 90 minutes. • 4.” left out

Another assay deals with mTORC1 over mTORC2. The assay is described as follows: mTORC1 over mTORC2 selectivity by comparing pS6K1 and pAKT IC50. The conditions noted are these: by comparing pS6K1 and pAKT IC50, 90 min. The method, then:
as §1, with “Reader […]” for “Reader”
Compounds that are not selective by comparing pS6K1 and pAKT IC50 by kinase assays are indicated by “NO” in the “mTORC1 selective @ 90 min” column of Table 4. […] Compounds that are not selective at the 24 hrs mark are indicated by “NO” in the “mTORC1 selective @ 24 hrs” column of Table 4. “N/A” stands for “not assayed” and “N/C” stands for “not calculated”.

This is an account of results in patent US20220267352A1, “RAPAMYCIN ANALOGS AND USES THEREOF” (Anakuria Therapeutics, Inc., priority 2021, published 2022).

As a reminder, the IC50 is the concentration that inhibits the measured activity by half. Higher therefore signals weaker potency. Consider `CO[C@@H]1C[C@H](C[C@@H](C)[C@@H]2CC(=O)[C@H](C)/C=C(\C)[C@@H](O)[C@@H](OC)C(=O)[C@H](C)C[C@H](C)/C=C/C=C/C=C(\C)C(OCC3COCCO3)C[C@@H]3CC[C@@H](C)[C@@](O)(O3)C(=O)C(=O)N3CCCC[C@H]3C(=O)O2)CC[C@H]1OCCCN1CCOCC1` (stereo partly drawn) [I-12, (28E,30E,32E,33E,39R,40S,41R,42R,44S,46S,49S,51R,52R,61R)-48-(1,4-dioxan-2-ylmethoxy)-51,61-dihydroxy-52-methoxy-49-[(1R)-2-[(1S,3R,4R)-3-methoxy-4-(3-morpholinopropoxy)cyclohexyl]-1-methyl-ethyl]-39,40,41,42,53,54-hexamethyl-74,75-dioxa-63-azatricyclohexatriaconta-28,30,32(53),33(54)-tetraene-55,56,57,58,59-pentone], for which the IC50 in assay [1] is below 1 nM; in assay [2], at least 1000 nM. The “mTORC1 selective @ 90 min” value with mTORC1 over mTORC2 is “Yes”.

Consider `CO[C@@H]1C[C@H](C[C@@H](C)[C@@H]2CC(=O)[C@H](C)/C=C(\C)[C@@H](O)[C@@H](OC)C(=O)[C@H](C)C[C@H](C)/C=C/C=C/C=C(\C)[C@H](OCCOC3COC3)C[C@@H]3CC[C@@H](C)[C@@](O)(O3)C(=O)C(=O)N3CCCC[C@H]3C(=O)O2)CC[C@H]1OCCCN1CCOCC1` [I-13, (27E,29E,31E,32E,39R,40S,41R,42R,44S,46S,48R,49S,51R,52R,61R)-51,61-dihydroxy-52-methoxy-49-[(1R)-2-[(1S,3R,4R)-3-methoxy-4-(3-morpholinopropoxy)cyclohexyl]-1-methyl-ethyl]-39,40,41,42,53,54-hexamethyl-48-[2-(oxetan-3-yloxy)ethoxy]-73,74-dioxa-63-azatricyclohexatriaconta-27,29,31(53),32(54)-tetraene-55,56,57,58,59-pentone], for which the IC50 in assay [1] is 1 to 10 nM; in assay [2], at least 1000 nM. Besides, in the assay on mTORC1 over mTORC2, the “mTORC1 selective @ 90 min” value is on record as “Yes”.

Take `CO[C@@H]1C[C@H](C[C@@H](C)[C@@H]2CC(=O)[C@H](C)/C=C(\C)[C@@H](O)[C@@H](OC)C(=O)[C@H](C)C[C@H](C)/C=C/C=C/C=C(\C)C(OCCOC3COC3)C[C@@H]3CC[C@@H](C)[C@@](O)(O3)C(=O)C(=O)N3CCCC[C@H]3C(=O)O2)CC[C@H]1OCCCN1CCN(C)CC1` (stereo partly drawn) [I-15, (28E,30E,32E,33E,40R,41S,42R,43R,45S,47S,50S,52R,53R,62R)-52,62-dihydroxy-53-methoxy-50-[(1R)-2-[(1S,3R,4R)-3-methoxy-4-[3-(4-methylpiperazin-1-yl)propoxy]cyclohexyl]-1-methyl-ethyl]-40,41,42,43,54,55-hexamethyl-49-[2-(oxetan-3-yloxy)ethoxy]-74,75-dioxa-65-azatricyclohexatriaconta-28,30,32(54),33(55)-tetraene-56,57,58,59,60-pentone]: the IC50 in assay [1] was 1 to 10 nM; in assay [2] it was at least 1000 nM. In the assay on mTORC1 over mTORC2, the “mTORC1 selective @ 90 min” value was “Yes”.

On to `CO[C@@H]1C[C@H](C[C@@H](C)[C@@H]2CC(=O)[C@H](C)/C=C(\C)[C@@H](O)[C@@H](OC)C(=O)[C@H](C)C[C@H](C)/C=C/C=C/C=C(\C)[C@H](OCCOC3COC3)C[C@@H]3CC[C@@H](C)[C@@](O)(O3)C(=O)C(=O)N3CCCC[C@H]3C(=O)O2)CC[C@H]1OC(=O)N(C)CCN1CCOCC1` [I-17, [(43S,45R,47R)-4-[(2R)-2-[(28E,30E,32E,33E,39R,40S,41R,42R,44S,46S,48R,49S,51R,52R,62R)-51,62-dihydroxy-52-methoxy-39,40,41,42,53,54-hexamethyl-48-[2-(oxetan-3-yloxy)ethoxy]-55,56,57,58,59-pentaoxo-76,77-dioxa-64-azatricyclohexatriaconta-28,30,32(53),33(54)-tetraen-49-yl]propyl]-47-methoxy-45-cyclohexyl] N-methyl-N-(2-morpholinoethyl)carbamate], for which the IC50 in assay [1] was 1 to 10 nM; in assay [2], at least 1000 nM. In the assay on mTORC1 over mTORC2, the “mTORC1 selective @ 90 min” value was “Yes”.

Regarding `CO[C@@H]1C[C@H](C[C@@H](C)[C@@H]2CC(=O)[C@H](C)/C=C(\C)[C@@H](O)[C@@H](OC)C(=O)[C@H](C)C[C@H](C)/C=C/C=C/C=C(\C)C(OCCOC3COC3)C[C@@H]3CC[C@@H](C)[C@@](O)(O3)C(=O)C(=O)N3CCCC[C@H]3C(=O)O2)CC[C@H]1OC(=O)NCCN1CCOCC1` (stereo partly drawn) [I-19, [(42S,44R,46R)-4-[(2R)-2-[(27E,29E,31E,32E,38R,39S,40R,41R,43S,45S,48S,50R,51R,61R)-50,61-dihydroxy-51-methoxy-38,39,40,41,52,53-hexamethyl-47-[2-(oxetan-3-yloxy)ethoxy]-54,55,56,57,58-pentaoxo-75,76-dioxa-64-azatricyclohexatriaconta-27,29,31(52),32(53)-tetraen-48-yl]propyl]-46-methoxy-44-cyclohexyl] N-(2-morpholinoethyl)carbamate], the IC50 is below 1 nM in assay [1] and at least 1000 nM in assay [2]. Besides, in the assay with mTORC1 over mTORC2, the “mTORC1 selective @ 90 min” value is recorded as “Yes”.

As for `CO[C@@H]1C[C@H](C[C@@H](C)[C@@H]2CC(=O)[C@H](C)/C=C(\C)[C@@H](O)[C@@H](OC)C(=O)[C@H](C)C[C@H](C)/C=C/C=C/C=C(\C)[C@H](OCCOC3COC3)C[C@@H]3CC[C@@H](C)[C@@](O)(O3)C(=O)C(=O)N3CCCC[C@H]3C(=O)O2)CC[C@H]1OC(=O)NCCN1CCOCC1` [I-20, [(42S,44R,46R)-4-[(2R)-2-[(27E,29E,31E,32E,38R,39S,40R,41R,43S,45S,47R,48S,50R,51R,61R)-50,61-dihydroxy-51-methoxy-38,39,40,41,52,53-hexamethyl-47-[2-(oxetan-3-yloxy)ethoxy]-54,55,56,57,58-pentaoxo-75,76-dioxa-64-azatricyclohexatriaconta-27,29,31(52),32(53)-tetraen-48-yl]propyl]-46-methoxy-44-cyclohexyl] N-(2-morpholinoethyl)carbamate], the figures for the IC50 in assay [1] and in assay [2] were 1 to 10 nM and at least 1000 nM, respectively. The “mTORC1 selective @ 90 min” value in the assay on mTORC1 over mTORC2 is on record as “Yes”.

Regarding `CO[C@@H]1/C(C)=C/[C@@H](C)C(=O)C[C@@H]([C@H](C)C[C@@H]2CC[C@@H](OC)[C@H](OC)C2)OC(=O)[C@@H]2CCCCN2C(=O)C(=O)[C@]2(O)O[C@@H](CC[C@H]2C)CC(OCCOCCN)/C(C)=C/C=C/C=C/[C@@H](C)C[C@@H](C)C(=O)[C@@H]1OC` (stereo partly drawn) [I-22], the IC50 in assay [1] is 100 to 1000 nM; in assay [2], at least 1000 nM. Moreover, the “mTORC1 selective @ 90 min” value with mTORC1 over mTORC2 is reported as “Yes”.

Consider `CO[C@@H]1/C(C)=C/[C@@H](C)C(=O)C[C@@H]([C@H](C)C[C@@H]2CC[C@@H](OCCO)[C@H](OC)C2)OC(=O)[C@@H]2CCCCN2C(=O)C(=O)[C@]2(O)O[C@@H](CC[C@H]2C)CC(OCCOCCN)/C(C)=C/C=C/C=C/[C@@H](C)C[C@@H](C)C(=O)[C@@H]1OC` (stereo partly drawn) [I-23, (22E,24E,26E,27E,35R,36S,37R,38R,40S,42S,45S,46R,47R,56R)-44-[2-(2-aminoethoxy)ethoxy]-56-hydroxy-45-[(1R)-2-[(1S,3R,4R)-4-(2-hydroxyethoxy)-3-methoxy-cyclohexyl]-1-methyl-ethyl]-46,47-dimethoxy-35,36,37,38,48,49-hexamethyl-66,67-dioxa-58-azatricyclohexatriaconta-22,24,26(48),27(49)-tetraene-50,51,52,53,54-pentone], for which the results for the IC50 in assay [1] and in assay [2] were 100 to 1000 nM and at least 1000 nM, respectively. In the assay on mTORC1 over mTORC2, the “mTORC1 selective @ 90 min” value is recorded as “Yes”.
